Assay results from US20040248769A1, “Enzyme inhibitors for inactivating allergens” (priority 2001, published 2004).
Several values for one entry are separate records, joined by “and”; a condition that tells them apart may be missing. Equal entries are not always repeated. Each block holds one molecule with its values, some of them ahead of it. *1 amine or outer side, *2 acyl side, *3 side chain or, on linkers, in order; H or OH if unused. Where a SMILES comes first, the peptide text is derived from it. The star is where a group is joined. AMC = Cc1cc(=O)oc2cc(N*)ccc12; Suc = O=C(CCC(=O)[*:2])[*:1]; Cbz = O=C(OCc1ccccc1)*

What was measured:
[1] = tested on: Cat1 S1 fur extract proteolytic activity; experiment: Proteolytic activity of fur extract against NHMec substrates; format: biochemical, cat; conditions: sample Cat1 S1, 5 μM substrate, 37° C., pH 7.5
Method: (§1) A clean pet brush was used to brush three common English domestic cats. Fur from guinea pigs, rabbit, dogs and horse was collected in the same way. A different brush was used for each species and between brushings these were cleaned thoroughly in a denaturing detergent solution (Fairy® detergent) and then ethanol. The brushings were transferred to a sterile universal container and extracted by shaking in an extraction buffer, 50 mM Tris.HCl, 5 mM CaCl2, pH 7.5 (0.1 g/ml). The solution was recovered by centrifugation and stored at −20° C. in aliquots. Saliva was collected from a mastiff-type dog and stored frozen in aliquots until assayed. Sample aliquots were assayed for proteolytic activity using fluorometric blocked peptidylaminomethylcoumarylamide substrates in the cuvette of a Perkin Elmer fluorimeter at 37° C. The fluorimeter was standardised with a known concentration of methylcoumarin, and the assays were designed so that no more than 10% substrate hydrolysis occurred.
(§2) Assays were performed in assay buffer; 50 mM Tris.HCl, 5 mM CaCl2, 0.1% CHAPS, pH 7.5. Data were collected in real-time on a personal computer using the Flusys software package.
(§3) In the first series of experiments the sample (12 μl) was assayed against a range of serine and cysteine proteinase aminomethylcoumarylamide (NHMec) substrates (obtained commercially from Bachem) under standard conditions of 5 μM substrate concentration (from a 100-fold stock solution in dimethyl sulfoxide) to give a final volume of 120 μl. After addition of substrate the rate without sample was determined (which in all cases was zero), after which the sample was applied and the progress of the reaction was followed for a further 15 min. The slope obtained (fluorescence vs time) was analysed by linear regression and converted to rate of product formation (nM/min) see results table 2.

[2] = tested on: Cat2 S1 fur extract proteolytic activity; experiment: as above; format: biochemical, cat; conditions: sample Cat2 S1, 5 μM substrate, 37° C., pH 7.5
Method: as §1, §2, §3

[3] = tested on: Cat1 S3 fur extract proteolytic activity; experiment: Inhibition of the proteolytic activity in animal fur by proteinase inhibitors; format: biochemical, cat; conditions: Cat1 S3, 10 μM inhibitor
Method: […] The assay was begun with substrate and sample and a continuous rate of product formation (nM/min) was measured (v0) for 15 min. The inhibitor was added to a final concentration of 10 μM in negligible volume from stock solution in dimethyl sulfoxide. The assay was continued for a further 15 min.
Under these conditions reversible inhibition can be measured as the new steady state (v1) with percentage inhibition being 1−(v1/v0)×100. Irreversible inhibition is measured as a second order rate constant and is time dependent but as long as the inhibitor is present in molar excess should always lead eventually to total inhibition. No distinction was made and inhibition is presented as a percentage of full activity. See results table 4.

cat fur enzyme(s) = experiment: Rates of cleavage at varying substrate concentration and Km; format: biochemical; conditions: for Rate: cat fur sample; for Km: non-linear regression, Enzfitter, rough estimate
Method: as §3
A rough estimate of the Km for the cleavage of Z-Gly-Gly-Arg-NHMec and of Z-Phe-Arg-NHMec by the cat fur enzyme(s) were determined using the same procedure with varying concentrations of these substrates see results table 3.
As the activity follows normal Michaelis-Menten kinetics it is clear that it is due to the activity of one or more biological catalysts or enzymes.

[4] = tested on: Cat1 S3 fur extract proteolytic activity; experiment: Proteolytic activity of fur extract against NHMec substrates; format: biochemical, cat; conditions: sample Cat1 S3, 5 μM substrate, 37° C., pH 7.5
Method: as §1, §2, §3

[5] = tested on: Cat3 S1 fur extract proteolytic activity; experiment: as above; format: biochemical, cat; conditions: sample Cat3 S1, 5 μM substrate, 37° C., pH 7.5
Method: as §1, §2, §3

[6] = tested on: Rabbit1 S1 fur extract proteolytic activity; experiment: as above; format: biochemical, rabbit; conditions: sample Rabbit1 S1, 5 μM substrate, 37° C., pH 7.5
Method: as §1, with “Sample aliquots were assayed for proteolytic activity using fluorometric blocked peptidylaminomethylcoumarylamide substrates in the cuvette of a Perkin Elmer fluorimeter at 37° C. The fluorimeter was standardised with a known concentration of methylcoumarin, and the assays were designed so that no more than 10% substrate hydrolysis occurred.” left out
as §3

[7] = tested on: Dog1 S1 fur extract proteolytic activity; experiment: as above; format: biochemical, dog; conditions: sample Dog1 S1 (fur), 5 μM substrate, 37° C., pH 7.5
Method: as §1, with “Sample aliquots were assayed for proteolytic activity using fluorometric blocked peptidylaminomethylcoumarylamide substrates in the cuvette of a Perkin Elmer fluorimeter at 37° C. The fluorimeter was standardised with a known concentration of methylcoumarin, and the assays were designed so that no more than 10% substrate hydrolysis occurred.” left out
as §3

[8] = tested on: Dog1 S2 saliva proteolytic activity; experiment: Proteolytic activity of saliva against NHMec substrates; format: biochemical, dog; conditions: sample Dog1 S2 (saliva), 5 μM substrate, 37° C., pH 7.5
Method: as §1, with “Sample aliquots were assayed for proteolytic activity using fluorometric blocked peptidylaminomethylcoumarylamide substrates in the cuvette of a Perkin Elmer fluorimeter at 37° C. The fluorimeter was standardised with a known concentration of methylcoumarin, and the assays were designed so that no more than 10% substrate hydrolysis occurred.” left out
as §3

[9] = tested on: G. pig1 S1 fur extract proteolytic activity; experiment: Proteolytic activity of fur extract against NHMec substrates; format: biochemical, guinea pig; conditions: sample G. pig1 S1, 5 μM substrate, 37° C., pH 7.5
Method: as §1, with “Sample aliquots were assayed for proteolytic activity using fluorometric blocked peptidylaminomethylcoumarylamide substrates in the cuvette of a Perkin Elmer fluorimeter at 37° C. The fluorimeter was standardised with a known concentration of methylcoumarin, and the assays were designed so that no more than 10% substrate hydrolysis occurred.” left out
as §3

[10] = tested on: G. pig2 S1 fur extract proteolytic activity; experiment: as above; format: biochemical, guinea pig; conditions: sample G. pig2 S1, 5 μM substrate, 37° C., pH 7.5
Method: as §1, with “Sample aliquots were assayed for proteolytic activity using fluorometric blocked peptidylaminomethylcoumarylamide substrates in the cuvette of a Perkin Elmer fluorimeter at 37° C. The fluorimeter was standardised with a known concentration of methylcoumarin, and the assays were designed so that no more than 10% substrate hydrolysis occurred.” left out
as §3

[11] = substrate 1 Z-Gly-Gly-Arg-NHMec

SMILES: Cc1cc(=O)oc2cc(NC(=O)[C@H](Cc3ccccc3)NC(=O)[C@@H]3CCCN3C(=O)[C@H](C)NC(=O)[C@H](C)NC(=O)CCC(=O)O)ccc12 [Suc-Ala-Ala-Pro-Phe-NHMec] (Suc-AAPF-{AMC})
Rate [1]: 0.04 nM/min | Rate [2]: 0.05 nM/min

% Inhibition ([3]; substrate 2 Z-Phe-Arg-NHMec): 100% | v1 (rate after inhibitor) ([3]; substrate 2 Z-Phe-Arg-NHMec): 0 nM/min
SMILES: N=C(N)SCCCOc1oc(=O)c2cc(NC(=O)NCc3ccccc3)ccc2c1Cl [PhCH2NHCONH-CiTPrOIC]

SMILES: Cc1cc(=O)oc2cc(NC(=O)[C@H](Cc3ccccc3)NC(=O)[C@H](C)NC(=O)[C@H](C)NC(=O)CCC(=O)O)ccc12 [Suc-Ala-Ala-Phe-NHMec] (Suc-Ala-Ala-Phe-{AMC})
Rate [1]: No activity | Rate [2]: 0.03 nM/min

Rate (cat fur enzyme(s); [Substrate] 5 μM): 1.47 nM/min | Rate (cat fur enzyme(s); [Substrate] 10 μM): 2.42 nM/min | Rate (cat fur enzyme(s); [Substrate] 20 μM): 3.41 nM/min | Rate (cat fur enzyme(s); [Substrate] 40 μM): 4.82 nM/min and 8.84 nM/min | Rate (cat fur enzyme(s); [Substrate] 60 μM): 10.01 nM/min | Rate (cat fur enzyme(s); [Substrate] 80 μM): 13.27 nM/min | Rate (cat fur enzyme(s); [Substrate] 100 μM): 11.40 nM/min | Rate (cat fur enzyme(s); [Substrate] 125 μM): 13.49 nM/min | Km (cat fur enzyme(s)): 95 ± 47 µM
SMILES: Cc1cc(=O)oc2cc(NC(=O)[C@H](CCCN=C(N)N)NC(=O)CNC(=O)CNC(=O)OCc3ccccc3)ccc12 [Z-Gly-Gly-Arg-NHMec]
Rate [1]: 0.87 nM/min | Rate [2]: 1.35 nM/min

SMILES: Cc1cc(=O)oc2cc(NC(=O)[C@H](CCCCN)NC(=O)[C@H](Cc3ccccc3)NC(=O)[C@H](C)NC(=O)CCC(=O)O)ccc12 [Suc-Ala-Phe-Lys-NHMec] (Suc-Ala-Phe-Lys-{AMC})
Rate [1]: No activity | Rate [2]: No activity

% Inhibition [3, 11]: 35.4% | v1 (rate after inhibitor) [3, 11]: 1.837 nM/min
SMILES: O=c1oc(Cl)c(Cl)c2ccccc12 [3,4-Dichloroisocoumarin]

Rate (cat fur enzyme(s); [Substrate] 0.5 μM): 3.74 nM/min | Rate (cat fur enzyme(s); [Substrate] 1.0 μM): 6.99 nM/min | Rate (cat fur enzyme(s); [Substrate] 2.0 μM): 10.2 nM/min | Rate (cat fur enzyme(s); [Substrate] 5 μM): 27.3 nM/min | Rate (cat fur enzyme(s); [Substrate] 60 μM): 35.4 nM/min | Rate (cat fur enzyme(s); [Substrate] 80 μM): 32.3 nM/min | Rate (cat fur enzyme(s); [Substrate] 100 μM): 33.7 nM/min | Km (cat fur enzyme(s)): 3.2 ± 0.9 µM
SMILES: Cc1cc(=O)oc2cc(NC(=O)C(CCCN=C(N)N)NC(=O)C(Cc3ccccc3)NC(=O)OCc3ccccc3)ccc12 (stereo not drawn) [Z-Phe-Arg-NHMec] (Cbz-Phe-Arg-{AMC}; configuration not given here)
Rate [4]: 43.5 nM/min | Rate [5]: 24.5 nM/min | Rate [6]: 3.93 nM/min | Rate [7]: 40.6 nM/min | Rate [8]: 1786.9 nM/min | Rate [9]: 9.11 nM/min | Rate [10]: 18.66 nM/min

SMILES: Cc1cc(=O)oc2cc(NC(=O)[C@H](C)NC(=O)[C@H](C)NC(=O)[C@H](C)NC(=O)CCC(=O)O)ccc12 [Suc-Ala-Ala-Ala-NHMec]
Rate [1]: No activity | Rate [2]: No activity
